{"source": "patent US20230051797A1", "about": "“METHOD FOR RECOVERING EXTRACELLULAR VESICLE AND BLOOD COLLECTION VESSEL” (FUJIREBIO INC., priority 2019, published 2023)", "key": {"human whole blood": {"test_system": "human whole blood", "assay": "Confirmation of presence and absence of hemolysis in whole blood with surfactant (Example 2)", "procedure": "A surfactant was added to human whole blood for confirmation of presence and absence of hemolysis. […] Octyltrimethylammonium bromide (C8TAB) and hexadecyltrimethylammonium chloride (C16TAC) were used as cationic surfactants. N-decanoyl sarcosine sodium (N-DSS (NDS)) and N-lauroyl sarcosine sodium hydrate (NLS) were used as anionic surfactants. As amphoteric surfactants, CHAPS and N-dodecyl-N,N-dimethyl-3-ammonio-l-propanesulfonate (C12APS) were used.\nMore specifically, 900 μL of whole blood obtained after blood collection was added to the 5 mL polypropylene test tube (manufactured by nunc) containing 100 μL of D-PBS (-) supplemented with the surfactant. The surfactant was added to achieve a final concentration of 0.5 W/V % after mixed with whole blood. After the addition of whole blood, the test tubes were inverted for mixing, and allowed to stand at room temperature for 30 minutes. After centrifugation (3000 rpm, 5 minutes), the supernatant was collected for visual check of the presence and absence of hemolysis."}, "[1]": {"test_system": "CD9, the surface marker protein of the extracellular vesicle (EV)", "assay": "Recovery of EV from whole blood with chelating agent (CD9 measured in supernatant, Example 1)", "design": "species or system human", "conditions": "chelating agent final concentration 15 mM in whole blood"}, "[2]": {"test_system": "CD9, the surface marker protein of extracellular vesicle (EV)", "assay": "Recovery of EV from whole blood supplemented with chelating agent and surfactant (CD9 in supernatant, Example 3)", "design": "species or system human", "conditions": "chelating agent 60 mM"}, "[3]": {"test_system": "CD9, the surface marker protein of extracellular vesicle (EV)", "assay": "Study of concentrations of chelating agent and surfactant (CD9 in supernatant, Example 4)", "design": "species or system human", "conditions": "Tergitol 15-S-40 0%", "procedure": "(§1) To 0.01 g/mL of magnetic particles in 10 mM MES buffer (pH 5.0), 0.2 mg/mL of a mouse anti-CD9 monoclonal antibody (Fujirebio Inc.) that recognizes an extracellular vesicle (EV) surface marker CD9, was added. Then, the resulting solution was gently stirred at 25° C. for one hour for incubation. After the reaction, the magnetic particles were magnetically collected and washed with a washing solution (50 mM Tris buffer, 150 mM NaCl2, 2.0% BSA, pH 7.2) in order to obtain anti-CD9 antibody solid-phased particles. Each antibody solid-phased particle was suspended in a particle diluent (50 mM Tris buffer, 1 mM EDTA-2Na, 0.1% NaN3, 2.0% BSA, pH 7.2) in order to obtain each antibody solid-phased particle solution.\n(§2) Desalted alkaline phosphatase (ALP) was mixed with N-(4-maleimidobutyryloxy)-succinimide (GMBS) (final concentration 0.3 mg/mL) and the resulting solution was allowed to stand at 30° C. for one hour for maleimidation of ALP. Next, in a coupling reactant solution (100 mM phosphate buffer, 1 mM EDTA-2Na, pH 6.3), Fab's of mouse anti-CD9 monoclonal antibody was mixed with maleimidized ALP at a molar ratio of 1: 1, and reacted at 25° C. for one hour. The reactant solution was subjected to purification using Superdex 200 column chromatography (General Electric Company) to obtain ALP-labeled anti-CD9 antibody. Each ALP-labeled antibody was suspended in a labeled antibody diluent (50 mM MES buffer, 150 mM NaCl2, 0.3 mM ZnCl2, 1 mM MgCl2, 0.1% NaN3, 2.0% BSA, pH 6.8) to obtain each labeled antibody solution.\n(§3) 20 μL of the sample for measurement and 50 μL of the anti-CD9 antibody solid-phased particle solution were dispensed into the reaction vessel and stirred. Then, the resulting solution was incubated at 37° C. for 8 minutes (primary reaction), and B/F separation and washing were carried out. 50 μL of the ALP-labeled antibody was dispensed into the reaction vessel, the resulting solution was stirred and then incubated at 37° C. for 8 minutes, and B/F separation and washing were carried out. Then, 200 μL of Lumipulse (registered trademark) substrate solution (Fujirebio Inc.) containing 3-(2′-spiroadamantane)-4-methoxy-4-(3″-phosphoryloxy)phenyl-1,2-dioxetane disodium salt (AMPPD) serving as a chemiluminescent substance was dispensed into the reaction chamber. The resulting solution was stirred and then incubated at 37° C. for 4 minutes for the measurement of luminescence intensity using luminometer. A count value was obtained as the measured value. The luminescence intensity was measured using a fully automated chemiluminescent enzyme immunoassay system (Lumipulse L2400 (Fujirebio Inc.)).\nAntibodies recognizing the same epitope in CD9 were used as the antibody solid-phased on the magnetic particle and the ALP-labeled antibody. Due to the presence of a plurality of CD9 on a single extracellular vesicle, it is possible to measure for the extracellular vesicle presenting a plurality of CD9 to be indicated as the surface marker rather than free CD9 by means of the sandwich immunoassay in which the antibodies recognizing the same epitope as the solid-phased antibodies were used as the ALP-labeled antibodies.\nVarious concentrations of the chelating agent and the surfactant were added to human whole blood, for the measurement of CD9 in the supernatant obtained after centrifugation. […]"}, "[4]": {"test_system": "CD9, the surface marker protein of extracellular vesicle (EV)", "assay": "Study of action of chelating agent and surfactant on whole blood or on immune reaction (CD9, Example 5)", "design": "species or system human", "conditions": "for vs. no EGTA (%): 100 mM EGTA in particle solution vs none", "procedure": "as §1, §2\nas §3, with “Inc.)). […]” for “Inc.)).”\nIn addition, CD9 was measured also for a solution obtained by adding 100 mM EGTA to the CD9 antibody solid-phased particle solution. […]"}, "[5]": {"test_system": "CD9, the surface marker protein of extracellular vesicle (EV)", "assay": "Study of surfactant type in combination with EGTA (CD9 in supernatant, Example 6)", "design": "species or system human", "conditions": "EGTA 200 mM, no surfactant (D-PBS(-))", "procedure": "as §1, with “solution. […]” for “solution.”\n20 μL of the sample for measurement and 50 μL of the anti-CD9 antibody solid-phased particle solution were dispensed into the reaction vessel and stirred. […] The resulting solution was stirred and then incubated at 37° C. for 4 minutes for the measurement of luminescence intensity using luminometer. A count value was obtained as the measured value. The luminescence intensity was measured using a fully automated chemiluminescent enzyme immunoassay system (Lumipulse L2400 (Fujirebio Inc.)). […]"}, "[6]": {"conditions": "surfactant final 0.5 W/V % in whole blood, visual check of supernatant"}}, "note": "Read-outs that look alike come from different tables or passages of the source."}
{"smiles": "CCCCCCCCCCCC[N+](C)(C)CCCS(=O)(=O)[O-]", "note": "[C12APS, N-dodecyl-N,N-dimethyl-3-ammonio-l-propanesulfonate]", "values": [{"measurement": "Hemolysis, Specimen 1", "setting": "human whole blood; [6]", "value": "Hemolysis"}, {"measurement": "Hemolysis, Specimen 2", "setting": "human whole blood; [6]", "value": "Hemolysis"}]}
{"smiles": "CCCCCCCCCCCCCCCC[N+](C)(C)C.[Cl-]", "note": "[C16TAC, hexadecyltrimethylammonium chloride]", "values": [{"measurement": "Hemolysis, Specimen 1", "setting": "human whole blood; [6]", "value": "Hemolysis"}, {"measurement": "Hemolysis, Specimen 2", "setting": "human whole blood; [6]", "value": "Hemolysis"}]}
{"smiles": "C[C@H](CCC(=O)NCCC[N+](C)(C)CCCS(=O)(=O)[O-])[C@H]1CC[C@H]2[C@@H]3[C@H](O)C[C@@H]4C[C@H](O)CC[C@]4(C)[C@H]3C[C@H](O)[C@]12C", "note": "[CHAPS]", "values": [{"measurement": "Hemolysis, Specimen 1", "setting": "human whole blood; [6]", "value": "Hemolysis"}, {"measurement": "Hemolysis, Specimen 2", "setting": "human whole blood; [6]", "value": "Hemolysis"}]}
{"smiles": "O=C(O)CN(CCN(CC(=O)O)CC(=O)O)CC(=O)O.[Na].[Na]", "note": "[EDTA2Na, disodium ethylenediaminetetraacetic acid]", "values": [{"measurement": "vs. non-addition (%)", "setting": "[1]", "value": 376.6, "unit": "%"}, {"measurement": "vs. No chelating agent and surfactant added (%)", "setting": "[2]", "value": 196.6, "unit": "%"}]}
{"smiles": "O=C(O)CN(CCOCCOCCN(CC(=O)O)CC(=O)O)CC(=O)O", "note": "[EGTA, glycol ether diamine tetraacetic acid]", "values": [{"measurement": "vs. non-addition (%)", "setting": "[1]", "value": 215, "unit": "%"}, {"measurement": "vs. No chelating agent and surfactant added (%)", "setting": "[2]", "value": 332.6, "unit": "%"}, {"measurement": "CD9 vs. 0 mM EGTA (%)", "setting": "[3]; EGTA 10 mM", "value": 154, "unit": "%"}, {"measurement": "CD9 vs. 0% Tergitol (%)", "setting": "[3]; EGTA 50 mM", "value": 294, "unit": "%"}, {"measurement": "CD9 vs. 0 mM EGTA (%)", "setting": "[3]; EGTA 50 mM", "value": 294, "unit": "%"}, {"measurement": "CD9 vs. 0 mM EGTA (%)", "setting": "[3]; EGTA 100 mM", "value": 532, "unit": "%"}, {"measurement": "CD9 vs. 0 mM EGTA (%)", "setting": "[3]; EGTA 200 mM", "value": 721, "unit": "%"}, {"measurement": "vs. no EGTA (%)", "setting": "[4]; blood collection vessel: 200 mM EGTA, 0% Tergitol", "value": 112.9, "unit": "%"}, {"measurement": "vs. no EGTA (%)", "setting": "[4]; blood collection vessel: nothing added", "value": 71, "unit": "%"}, {"measurement": "vs. non-addition (%)", "setting": "[4]; blood collection vessel: 200 mM EGTA, 0% Tergitol, particle solution: 100 mM EGTA + 0.5% Tergitol", "value": 843.5, "unit": "%"}, {"measurement": "vs. non-addition (%)", "setting": "[4]; blood collection vessel: 200 mM EGTA, 0% Tergitol, particle solution: 0.5% Tergitol", "value": 530.5, "unit": "%"}, {"measurement": "vs. non-addition", "setting": "[5]", "value": 366.4}]}
{"smiles": "O=C(O)CN(CCO)CCN(CC(=O)O)CC(=O)O", "note": "[HEDTA, hydroxyethyl ethylenediaminetriacetic acid]", "values": [{"measurement": "vs. non-addition (%)", "setting": "[1]", "value": 963.9, "unit": "%"}]}
{"smiles": "CCCCCCCCCC(=O)N(C)CC(=O)O.[Na]", "note": "[N-DSS (NDS), N-decanoyl sarcosine sodium]", "values": [{"measurement": "Hemolysis, Specimen 1", "setting": "human whole blood", "value": "Hemolysis"}, {"measurement": "Hemolysis, Specimen 2", "setting": "human whole blood", "value": "Hemolysis"}]}
{"smiles": "CCCCCCCCCCCC(=O)N(C)CC(=O)O.O.[Na]", "note": "[NLS, N-lauroyl sarcosine sodium hydrate]", "values": [{"measurement": "Hemolysis, Specimen 1", "setting": "human whole blood", "value": "Hemolysis"}, {"measurement": "Hemolysis, Specimen 2", "setting": "human whole blood", "value": "Hemolysis"}]}
{"smiles": "O=C(O)CN(CC(=O)O)CC(=O)O", "note": "[NTA, nitrilotriacetic acid]", "values": [{"measurement": "vs. non-addition (%)", "setting": "[1]", "value": 427.7, "unit": "%"}]}
